Measurements as given in US6989383B1, “Method of treating cancer” (Sloan-Kettering Institute For Cancer Research, priority 1998, dated 2006).

Key:
[1] = TFA salt
MCF-7 cells [2] = assay: In vitro cell cycle assay (DNA content by flow cytometry); type: cell-based, human; details: 24 hour treatment with various concentrations of paclitaxel in presence or absence of 1 μM Compound A
Protocol: FIGS. 4 and 4A-4L: Effect of a Farnesyl-protein Transferase Inhibitor in combination with paclitaxel on the cell cycle of MCF-7 Cells: MCF-7 cells were preincubated for one day, followed by a 24 hour treatment with various concentrations of paclitaxel in the presence or absence of 1 μM Compound A. The DNA contents of the cells were then assessed according to the protocol described in “In vitro cell cycle assay.” The cell population having various DNA quantities was then determined and analyzed graphically. […] FIGS. 4A-4L show the individual histograms in greater detail. FIGS. 4A-4F show the histograms of the treatment in the absence of Compound A and with increasing concentrations of paclitaxel (the left column of FIG. 4). FIGS. 4G-4L show the histograms of the treatment in the presence of 1 μM of Compound A and with increasing concentrations of paclitaxel (the right column of FIG. 4).
Cancer cells (MCF-7, MDA468 or DU-145) are seeded in a 10 cm dish at 1,000,000 cells per dish. After one day in growth media, the cells are exposed to various concentrations of a antineoplastic agent along with vehicle (PBS) or 1 μM FTI in the vehicle. After 24 hours of exposure to the combination or antineoplastic agent, the cells are trypsinized and stained with ethidium bromide. The stained nucleii are analyzed by flow cytometry for evaluation of the DNA content.

MCF-7 cells [3] = assay: Mitotic index by bis-benzimide staining and fluorescence microscopy; type: cell-based, human; details: paclitaxel/Compound A treatments, manual counting of 1000 cells per group
Protocol: FIG. 5: Specific Effect of a Farnesyl-protein Transferase Inhibitor in combination with pactitaxel on the cell cycle of MCF-7 Cells: The cells which contained the doubled DNA content from the assay described above for FIGS. 4 and 4A-4L were analyzed to determine which particular cell cycle phase was affected by the addition of Compound A to the paclitaxel treatment. Thus, aliquots of the cell populations for the various paclitaxel/Compound A treatments were. fixed in 3% paraformaldehyde for 10 minutes, washed in PBS and stained in 24 μg/ml bis-benzimide in PBS. Mitotic cells were distinguished from interphase cells under fluorescence microscopy by characteristic chromatin condensation and mitotic indices were obtained by manual counting of 1000 cells in each experimental treatment group.

Compound	stability in solution exposed to air [1]	effect on paclitaxel-induced G2/M phase arrest (MCF-7 cells [2])	cell cycle phase affected by addition of Compound A to paclitaxel treatment (mitotic indices) (MCF-7 cells [3])
CC[C@H](C)[C@@H](CO[C@@H](Cc1ccccc1)C(=O)NC1CCOC1=O)NC[C@@H](N)CS (stereo partly drawn) [Compound 5-1, 2(S)-[2(S)-[2(R)-Amino-3-mercapto]-propylamino-3(S)-methyl]pentyloxy-3-phenylpropionyl-homoserine lactone]	prone to disulphide formation if left in solution and exposed to air		
CCC(C)[C@@H](CO[C@@H](Cc1ccccc1)C(=O)N[C@@H](CCS(C)(=O)=O)C(=O)OC(C)C)NC[C@@H](N)CS (stereo partly drawn) [Compound A, 2(S)-[2(S)-[2(R)-Amino-3-mercapto]-propylamino-3(S)-methyl)-pentyloxy-3-phenylpropionyl-methionine sulfone isopropyl ester]		increases the molar potency with which paclitaxel causes G2/M phase arrest	enhancement in blockage at the G2/M phase of the cell cycle is largely due to an effect on the M-phase
